ChEMBL document CHEMBL1201862, “PubChem BioAssay data set” (2004)
The source made the active and inactive calls.

Tests used:
[1] = target: T1, Sentrin-specific protease 7 (Homo sapiens, UniProt Q9BQF6); type: functional;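 also: Luminescence-based dose-response confirmation of ultra-high-throughput screening hits, measuring inhibition of SENP7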
T1 sequence (Q9BQF6 whole entry): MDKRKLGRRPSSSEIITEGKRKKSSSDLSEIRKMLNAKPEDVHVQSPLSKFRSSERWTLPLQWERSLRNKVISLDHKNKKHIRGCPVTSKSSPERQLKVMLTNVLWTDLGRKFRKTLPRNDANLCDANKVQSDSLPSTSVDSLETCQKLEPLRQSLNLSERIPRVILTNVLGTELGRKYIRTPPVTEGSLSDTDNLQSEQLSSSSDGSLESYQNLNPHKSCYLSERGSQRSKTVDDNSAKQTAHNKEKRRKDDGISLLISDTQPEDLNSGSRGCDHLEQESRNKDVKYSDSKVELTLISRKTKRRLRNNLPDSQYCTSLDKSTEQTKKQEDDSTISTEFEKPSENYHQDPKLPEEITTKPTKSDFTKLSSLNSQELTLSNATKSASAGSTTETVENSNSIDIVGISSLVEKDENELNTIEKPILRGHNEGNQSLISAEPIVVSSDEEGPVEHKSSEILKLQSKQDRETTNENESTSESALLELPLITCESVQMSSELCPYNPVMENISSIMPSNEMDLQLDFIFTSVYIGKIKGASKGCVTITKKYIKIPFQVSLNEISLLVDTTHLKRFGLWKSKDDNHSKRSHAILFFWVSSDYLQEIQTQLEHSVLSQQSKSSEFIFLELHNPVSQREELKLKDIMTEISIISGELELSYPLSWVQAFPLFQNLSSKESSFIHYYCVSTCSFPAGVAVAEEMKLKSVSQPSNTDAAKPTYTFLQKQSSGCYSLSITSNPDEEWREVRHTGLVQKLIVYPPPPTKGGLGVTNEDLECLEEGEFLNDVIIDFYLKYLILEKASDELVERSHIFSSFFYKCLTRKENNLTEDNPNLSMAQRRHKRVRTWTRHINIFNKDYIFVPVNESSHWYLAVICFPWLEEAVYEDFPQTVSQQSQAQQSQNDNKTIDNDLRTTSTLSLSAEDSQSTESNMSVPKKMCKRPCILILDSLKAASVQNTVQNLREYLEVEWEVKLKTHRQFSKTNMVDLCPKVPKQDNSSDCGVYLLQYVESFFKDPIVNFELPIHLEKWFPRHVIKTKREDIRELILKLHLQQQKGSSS

Caspase-3 = target: T2, Caspase-3 (Homo sapiens, UniProt P42574); type: functional;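 also: Dose-response selectivity test against caspase-3 for candidate inhibitors of sentrin-specific proteases (SENPs)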
T2 sequence (P42574 whole entry): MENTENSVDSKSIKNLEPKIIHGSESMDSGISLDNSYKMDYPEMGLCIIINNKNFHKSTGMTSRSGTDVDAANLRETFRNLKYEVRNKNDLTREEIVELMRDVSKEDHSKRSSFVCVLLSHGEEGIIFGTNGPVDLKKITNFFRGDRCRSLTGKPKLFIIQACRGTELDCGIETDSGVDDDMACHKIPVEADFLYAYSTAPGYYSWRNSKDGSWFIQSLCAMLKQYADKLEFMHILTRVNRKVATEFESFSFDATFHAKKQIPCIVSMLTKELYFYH

[2] = target: T3, Sentrin-specific protease 8 (Homo sapiens, UniProt Q96LD8); type: functional;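 also: luminescence read-out of SENP8 inhibition, dose-response confirmation following an ultra-high-throughput screen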
T3 sequence (Q96LD8 whole entry): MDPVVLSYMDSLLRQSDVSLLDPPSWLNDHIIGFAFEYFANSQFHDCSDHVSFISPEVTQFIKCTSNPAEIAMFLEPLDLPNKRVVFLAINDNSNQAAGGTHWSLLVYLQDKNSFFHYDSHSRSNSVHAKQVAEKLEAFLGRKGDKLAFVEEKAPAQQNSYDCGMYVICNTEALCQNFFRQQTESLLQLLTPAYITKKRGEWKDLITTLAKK

[3] = target: T4, Sentrin-specific protease 6 (Homo sapiens, UniProt Q9GZR1); type: functional;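 also: Luminescence-based dose-response confirmatory assay of SENP6 inhibition, following up an ultra-high-throughput screen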
T4 sequence (Q9GZR1 whole entry): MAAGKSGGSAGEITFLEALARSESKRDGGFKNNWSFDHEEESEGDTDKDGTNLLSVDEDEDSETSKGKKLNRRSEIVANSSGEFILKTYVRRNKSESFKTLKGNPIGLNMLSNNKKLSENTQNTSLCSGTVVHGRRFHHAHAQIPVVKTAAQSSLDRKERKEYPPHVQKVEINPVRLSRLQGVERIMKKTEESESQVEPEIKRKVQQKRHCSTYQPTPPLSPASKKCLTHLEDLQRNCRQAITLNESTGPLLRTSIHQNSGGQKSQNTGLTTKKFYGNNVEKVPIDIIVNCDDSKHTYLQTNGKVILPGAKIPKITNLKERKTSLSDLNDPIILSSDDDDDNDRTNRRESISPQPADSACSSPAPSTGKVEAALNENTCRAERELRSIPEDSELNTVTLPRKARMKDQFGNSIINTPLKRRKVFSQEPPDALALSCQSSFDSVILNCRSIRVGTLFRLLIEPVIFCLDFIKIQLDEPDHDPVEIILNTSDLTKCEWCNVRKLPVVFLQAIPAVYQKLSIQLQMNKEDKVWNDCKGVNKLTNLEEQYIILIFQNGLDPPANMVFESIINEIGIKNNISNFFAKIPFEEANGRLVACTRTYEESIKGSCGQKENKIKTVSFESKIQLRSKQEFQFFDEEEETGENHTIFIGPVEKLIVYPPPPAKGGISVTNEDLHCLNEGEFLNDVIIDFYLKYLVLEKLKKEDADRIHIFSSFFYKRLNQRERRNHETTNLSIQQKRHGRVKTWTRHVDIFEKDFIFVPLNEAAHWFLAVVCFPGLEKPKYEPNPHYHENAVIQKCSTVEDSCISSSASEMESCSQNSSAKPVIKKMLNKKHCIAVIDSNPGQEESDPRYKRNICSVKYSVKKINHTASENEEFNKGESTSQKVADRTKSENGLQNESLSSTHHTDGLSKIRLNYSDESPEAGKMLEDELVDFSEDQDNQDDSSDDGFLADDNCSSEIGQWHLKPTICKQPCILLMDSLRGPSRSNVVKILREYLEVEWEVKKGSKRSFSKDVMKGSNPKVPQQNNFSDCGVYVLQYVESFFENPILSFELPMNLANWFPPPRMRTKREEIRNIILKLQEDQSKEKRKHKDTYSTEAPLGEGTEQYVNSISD

Protein skinhead-1 = target: T5, Protein skinhead-1 (Caenorhabditis elegans, UniProt P34707); type: functional
T5 sequence (P34707 whole entry): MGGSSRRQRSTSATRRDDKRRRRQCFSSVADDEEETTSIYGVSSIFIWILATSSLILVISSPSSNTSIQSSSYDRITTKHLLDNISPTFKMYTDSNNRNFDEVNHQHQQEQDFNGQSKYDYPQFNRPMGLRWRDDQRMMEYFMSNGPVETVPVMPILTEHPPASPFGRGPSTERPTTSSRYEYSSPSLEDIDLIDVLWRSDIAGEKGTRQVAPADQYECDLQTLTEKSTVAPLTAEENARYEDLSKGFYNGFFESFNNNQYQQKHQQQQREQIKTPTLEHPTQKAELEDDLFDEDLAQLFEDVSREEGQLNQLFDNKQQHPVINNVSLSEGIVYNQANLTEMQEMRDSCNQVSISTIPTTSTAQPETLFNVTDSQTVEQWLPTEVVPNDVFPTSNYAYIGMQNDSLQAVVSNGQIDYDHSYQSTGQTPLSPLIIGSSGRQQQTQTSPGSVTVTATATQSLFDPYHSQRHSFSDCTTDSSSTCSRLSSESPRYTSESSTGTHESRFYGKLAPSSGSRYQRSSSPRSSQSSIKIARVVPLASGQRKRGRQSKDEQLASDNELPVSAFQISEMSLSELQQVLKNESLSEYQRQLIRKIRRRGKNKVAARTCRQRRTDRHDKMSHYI

[4] = target: T6, High affinity choline transporter 1 (Homo sapiens, UniProt Q9GZV3); experiment: human choline transporter blockers, potency – cell-based, 10-point CRC, membrane potential dye, dose response (AID 588401); type: functional;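 also: membrane potential dye fluorescence of choline-evoked depolarization via CHT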
T6 sequence (Q9GZV3 whole entry): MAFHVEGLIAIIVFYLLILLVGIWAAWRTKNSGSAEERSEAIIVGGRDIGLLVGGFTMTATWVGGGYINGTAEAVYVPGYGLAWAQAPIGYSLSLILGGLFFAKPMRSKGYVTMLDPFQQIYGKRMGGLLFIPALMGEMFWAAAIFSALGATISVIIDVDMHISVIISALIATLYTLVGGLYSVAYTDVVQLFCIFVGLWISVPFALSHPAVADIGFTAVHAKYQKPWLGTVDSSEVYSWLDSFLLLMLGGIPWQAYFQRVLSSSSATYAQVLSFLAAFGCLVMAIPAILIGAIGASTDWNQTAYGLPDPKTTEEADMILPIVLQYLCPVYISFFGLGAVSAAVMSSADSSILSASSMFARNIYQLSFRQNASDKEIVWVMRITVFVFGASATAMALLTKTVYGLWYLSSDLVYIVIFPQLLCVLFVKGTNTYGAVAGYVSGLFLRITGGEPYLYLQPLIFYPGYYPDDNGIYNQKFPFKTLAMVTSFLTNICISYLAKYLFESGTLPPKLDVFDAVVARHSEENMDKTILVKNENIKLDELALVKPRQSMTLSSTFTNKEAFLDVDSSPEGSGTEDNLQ

[5] = target: T6, High affinity choline transporter 1; experiment: human choline transporter blockers, potency – cell-based, 5-point CRC, membrane potential dye, dose response (AID 504840); type: functional
[6] = target: T7, Zinc finger protein mex-5 (Caenorhabditis elegans, UniProt Q9XUB2); experiment: potency of MEX-5 RNA-binding blockers – biochemical, C. elegans, fluorescence polarization, dose response (AID 1960)
T7 sequence (Q9XUB2 whole entry): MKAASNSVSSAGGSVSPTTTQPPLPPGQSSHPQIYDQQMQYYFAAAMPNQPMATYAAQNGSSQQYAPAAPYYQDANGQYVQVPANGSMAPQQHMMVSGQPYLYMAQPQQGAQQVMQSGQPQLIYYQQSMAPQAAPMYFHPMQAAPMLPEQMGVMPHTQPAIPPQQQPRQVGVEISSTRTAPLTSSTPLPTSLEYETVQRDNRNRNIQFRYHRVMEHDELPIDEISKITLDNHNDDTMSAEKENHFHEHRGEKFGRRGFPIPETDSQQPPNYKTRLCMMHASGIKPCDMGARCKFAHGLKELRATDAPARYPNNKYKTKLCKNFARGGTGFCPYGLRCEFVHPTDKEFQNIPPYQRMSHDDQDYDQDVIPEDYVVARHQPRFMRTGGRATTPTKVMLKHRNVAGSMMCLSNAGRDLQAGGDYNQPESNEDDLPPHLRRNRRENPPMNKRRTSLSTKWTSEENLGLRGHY

[7] = target: T8, RNA-binding protein pos-1 (Caenorhabditis elegans, UniProt G5EF15); experiment: disruptors of C. elegans POS-1 RNA interaction – biochemical, fluorescence polarization, dose response (AID 1964);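 also: purified POS-1 fused to maltose binding protein made in E. coli; potency of compounds blocking POS-1 binding to fluorescent RNA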
T8 sequence (G5EF15 whole entry): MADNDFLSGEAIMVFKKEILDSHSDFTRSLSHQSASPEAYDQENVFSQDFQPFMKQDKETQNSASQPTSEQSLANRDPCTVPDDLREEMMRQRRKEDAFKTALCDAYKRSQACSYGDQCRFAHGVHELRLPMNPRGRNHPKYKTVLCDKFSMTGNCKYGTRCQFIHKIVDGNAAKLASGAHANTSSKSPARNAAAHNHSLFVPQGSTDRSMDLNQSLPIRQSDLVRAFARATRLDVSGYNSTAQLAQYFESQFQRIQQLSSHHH

Compound | IC50 [1] | IC50 (Caspase-3) | IC50 [2] | IC50 [3] | IC50 (Protein skinhead-1) | IC50 [4] | IC50 [5] | EC50 [6] | EC50 [7]
Clc1ccc(-c2nnc(-c3ccccc3Cl)o2)cc1 | 2.65 µM (active) | 3.19 µM (active) | 8.03 µM (active) | 3.19 µM (active) | > 100 µM (inactive) |  |  |  | 
O=C(/C=C/c1ccco1)Nc1ccc(N2CCCC2)cc1 | > 100 µM (inactive) | > 100 µM (inactive) | > 100 µM (inactive) | > 100 µM (inactive) |  |  |  |  | 
O=C(C[n+]1cccc(Br)c1)c1ccc(-c2ccccc2)cc1 |  |  |  |  |  | 1 µM (active) | 2.83 µM (active) |  | 
CCC(C)c1ccc(NC(S)=NC(C)C2CCCO2)cc1 (stereo unspecified) |  |  |  |  |  | 4.09 µM (active) | 5.01 µM (active) |  | 
Cc1n[nH]c(C)c1Sc1ccccc1/N=C/c1cc(Cl)cc([N+](=O)[O-])c1O |  |  |  |  |  | 6.23 µM (active) | 8.88 µM (active) | 7.57 µM (inconclusive) | > 300 µM (inconclusive)
Brc1ccc(/C=N/Nc2ccccn2)cc1 | 2.96 µM (active) | 15.8 µM (active) | > 100 µM (inactive) | 4.07 µM (active) |  |  |  |  | 
